# Values quoted from earlier work in patent US20230149410A1, “TREATMENT OF CONDITIONS ASSOCIATED WITH THYROID HORMONE” (priority 2020, published 2023).
# Where two headings read alike, the source gives them in different places.
# Details: profound hypothyroidism after birth, treated immediately after birth
smiles,measurement,setting,value
N[C@@H](Cc1cc(I)c(Oc2cc(I)c(O)c(I)c2)c(I)c1)C(=O)O [levothyroxine],thyroid status by thyroid hormone testing in plasma or serum (blood),,rendered chemically euthyroid
same,thyroid status by thyroid hormone testing in plasma or serum (blood),listed as T4,became chemically euthyroid
